According to PubChem BioAssay (NCI):
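Dose response: 5 concentrations. Exposure: 48 h. Format: 96-well plates. Endpoint: linear interpolation; highest concentration if not reached. GI50: concentration for 50% inhibition of growth. Definition used: TGI = concentration required for complete inhibition of growth.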

Columns and labels:
Assay in all cases: NCI-60 cell line screen, 48 h
MALME-3M melanoma = system: MALME-3M melanoma
UACC-257 melanoma = system: UACC-257 melanoma
K-562 leukemia = system: K-562 leukemia
KM20L2 colon = system: KM20L2 colon
LXFL 529 NSCLC = system: LXFL 529 NSCLC
OVCAR-3 ovarian = system: OVCAR-3 ovarian
OVCAR-5 ovarian = system: OVCAR-5 ovarian
786-0 renal = system: 786-0 renal
MOLT-4 leukemia = system: MOLT-4 leukemia
HL-60(TB) leukemia = system: HL-60(TB) leukemia

| SMILES | TGI (MALME-3M melanoma) [µM] | TGI (UACC-257 melanoma) [µM] | TGI (K-562 leukemia) [µM] | TGI (KM20L2 colon) [µM] | TGI (LXFL 529 NSCLC) [µM] | TGI (OVCAR-3 ovarian) [µM] | TGI (OVCAR-5 ovarian) [µM] | TGI (786-0 renal) [µM] | TGI (MOLT-4 leukemia) [µM] | TGI (HL-60(TB) leukemia) [µM] | GI50 (UACC-257 melanoma) [µM] | GI50 (OVCAR-5 ovarian) [µM] | GI50 (786-0 renal) [µM] | GI50 (HL-60(TB) leukemia) [µM] | GI50 (MALME-3M melanoma) [µM] | GI50 (K-562 leukemia) [µM] | GI50 (OVCAR-3 ovarian) [µM] | GI50 (MOLT-4 leukemia) [µM] |
| --- | --- | --- | --- | --- | --- | --- | --- | --- | --- | --- | --- | --- | --- | --- | --- | --- | --- | --- |
| CN1C(=O)CC2(C)c3cc(O)cc(Br)c3N(C)C12 (configuration not stated) | > 100 | > 100 | > 100 | > 100 | > 100 | > 100 | > 100 | > 100 | > 100 | – | – | – | – | – | – | – | – | – |
| CC1(C)NC(=O)N(CCCCCCN2C(=O)NC(C)(C)C2=O)C1=O | > 100 | > 100 | > 100 | > 100 | > 100 | – | > 100 | > 100 | > 100 | – | – | – | – | – | – | – | – | – |
| COc1cccc(C=O)c1C(=O)c1cc(O)ccc1O | 37.5 | 46.3 | – | > 100 | – | 45.5 | > 100 | > 100 | 27.5 | > 100 | – | – | – | – | – | – | – | – |
| N#CC1C[C@@H]2CC3(CCC2CN1C(=O)c1ccccc1)OCCO3 (some centres not stated) | > 100 | > 100 | > 100 | > 100 | > 100 | > 100 | > 100 | > 100 | > 100 | > 100 | – | – | – | – | – | – | – | – |
| CCc1ccccc1NC(=O)C(=O)C(C#N)c1ccccc1Cl (configuration not stated) | > 100 | > 100 | – | > 100 | > 100 | > 100 | > 100 | > 100 | > 100 | > 100 | – | – | – | – | – | – | – | – |
| O=C(CCC(=O)Nc1ccc(Cl)c(Cl)c1)CC(=O)c1ccc2ccccc2c1 | > 100 | > 100 | > 100 | > 100 | > 100 | > 100 | > 100 | > 100 | > 100 | > 100 | – | – | – | – | – | – | – | – |
| [O-]/N=[N+](/[O-])C1CCCCC1=[N+]1CCOCC1 (configuration not stated) | > 100 | > 100 | > 100 | – | > 100 | > 100 | > 100 | > 100 | > 100 | > 100 | – | – | – | – | – | – | – | – |
| COc1cc2c(cc1OC)C(C#N)N(C(=O)c1ccccc1)C=C2OC(=O)c1ccccc1 (configuration not stated) | 50.2 | 53 | > 100 | > 100 | 42.5 | 47.4 | > 100 | 34.7 | > 100 | > 100 | – | – | – | – | – | – | – | – |
| Nc1nc(N)c(CCCCc2ccccc2)c(C=O)n1 | 36.3 | 33.3 | 24.3 | 90 | – | 32.6 | > 100 | 29.4 | – | – | – | – | – | – | – | – | – | – |
| O=C(NC(=Nc1ccccc1)SCSC(=Nc1ccccc1)NC(=O)c1ccco1)c1ccco1 | > 100 | > 100 | > 100 | > 100 | > 100 | > 100 | > 100 | > 100 | > 100 | – | – | – | – | – | – | – | – | – |
| NC1N=Nc2ccccc21 (configuration not stated) | > 100 | > 100 | > 100 | > 100 | > 100 | > 100 | > 100 | > 100 | > 100 | > 100 | – | – | – | – | – | – | – | – |
| O=[N+]([O-])c1cc(-c2nc(=S)[nH][nH]2)ccc1O | > 100 | > 100 | > 100 | > 100 | > 100 | – | > 100 | > 100 | – | > 100 | – | – | – | – | – | – | – | – |
| N#CCCN(CCC#N)c1ccc(/C=C(/NC(=O)c2cc([N+](=O)[O-])ccc2Cl)C(=O)NN)cc1 | > 100 | > 100 | > 100 | > 100 | > 100 | > 100 | > 100 | > 100 | > 100 | – | – | – | – | – | – | – | – | – |
| CC1CCC2C(C)C(=O)OC3OC4(C)CCC1C32OO4 (configuration not stated) | > 100 | > 100 | > 100 | > 100 | > 100 | > 100 | > 100 | > 100 | > 100 | > 100 | > 100 | > 100 | > 100 | – | – | – | – | – |
| Cc1cc(=O)[nH]c(CNC(=O)c2ccc3ccccc3c2)n1 | > 100 | > 100 | > 100 | > 100 | > 100 | > 100 | > 100 | > 100 | > 100 | > 100 | – | – | – | – | – | – | – | – |
| O=C(C=Nc1ccccc1C(=O)[O-])c1cccs1.O=C(C=Nc1ccccc1C(=O)[O-])c1cccs1.[Ni+2] | > 100 | > 100 | > 100 | > 100 | – | > 100 | > 100 | > 100 | > 100 | > 100 | – | – | – | – | – | – | – | – |
| COc1ccc2c(c1)[n+]([O-])c(-c1cccc(Cl)c1)c(N)[n+]2[O-] | > 100 | 64.7 | > 100 | > 100 | – | > 100 | > 100 | > 100 | > 100 | 95.6 | – | – | – | – | – | – | – | – |
| C/C(CCn1[nH]c(=O)ccc1=O)=N\NC(=O)C(N)=O | > 100 | > 100 | > 100 | > 100 | > 100 | > 100 | > 100 | > 100 | – | > 100 | – | – | – | – | – | – | – | – |
| C/C(CCC(=O)O)=N/Nc1ccc([N+](=O)[O-])cc1 | > 100 | > 100 | > 100 | – | – | > 100 | > 100 | > 100 | > 100 | > 100 | 70.6 | > 100 | 4.34 | 1.51 | 65 | 0.563 | 17.4 | 4.27 |
| CCCCCCCCCCCCCC[n+]1ccccc1 | 1.59 | 3.07 | 6.25 | – | – | 2.26 | 2.35 | 2.42 | 2.38 | 0.838 | 0.93 | 0.733 | 1.04 | 0.262 | 0.401 | 0.357 | 0.674 | 0.618 |
| COC(=O)C1=COC2OC3C(C(C)O)C(=O)OC34C=CC1C24 (configuration not stated) | > 100 | > 100 | > 100 | – | – | > 100 | > 100 | > 100 | > 100 | 39.7 | – | – | – | – | – | – | – | – |
| Oc1c(C(Nc2ccccn2)c2cccc(Oc3ccccc3)c2)ccc2cccnc12 (configuration not stated) | 19.7 | 15 | > 100 | – | – | 13.4 | 12.6 | 11.1 | > 100 | 37 | 1.32 | 0.515 | 0.657 | 0.432 | 0.806 | 0.374 | 0.56 | 0.436 |
